Measurements as given in ChEMBL document CHEMBL1151611, “Antimicrobial principles from in vitro tissue culture of Peganum harmala” (J Nat Prod, 1984).
Active and inactive are the calls of the source. The calls are words filed in the database; no cut-off is given here.

Experiments:
Assay type in all cases: functional, organism-based
Escherichia coli = assay: Antimicrobial activity against Escherichia coli
Staphylococcus aureus = assay: Antimicrobial activity against Staphylococcus aureus
Candida albicans = assay: Antimicrobial activity against Candida albicans

O=c1c(O)c(-c2ccc(O)c(O)c2)oc2cc(O)cc(O)c12
Activity (Escherichia coli): Active
Activity (Staphylococcus aureus): Active
Activity (Candida albicans): inactive

O=c1c(O)c(-c2ccc(O)cc2)oc2cc(O)cc(O)c12
Activity (Escherichia coli): Active
Activity (Staphylococcus aureus): Active
Activity (Candida albicans): Active
